Data on 29 compounds can be found in patent publication US7105538B2, “2-pyrrolidin-2-yl-[1,3,4]-oxadiazole compounds and their use as anti-depressants” (Gruenenthal GmbH, priority 2002, dated 2006).

Structures are written as SMILES.

For the first experiment, the system named is 5HT uptake (serotonin re-uptake), synaptosomes from rat brain. Nature of the experiment: Inhibition of serotonin re-uptake (5HT-uptake inhibition) in rat brain synaptosomes. It counts as biochemical. Conditions: synaptosomes (P2 fraction) from medulla+pons region of male rats' brains; test concentration not given. Here is the method:
Tests of Inhibition of Serotonin Re-Uptake (5HT-Uptake Inhibition)
To be able to carry out these studies in vitro, synaptosomes were freshly isolated from rat brain areas. What is known as a “P2” fraction was used in each case. This was prepared in accordance with Gray and Whittaker's directions (E. G. Gray and V. P. Whittaker (1962) J. Anat. 76, 79–88). These vesicular particles were isolated from the medulla+pons region of male rats' brains for 5HT uptake. A detailed description of the method may be found in the literature (M. Ch. Frink, H.-H. Hennies, W. Englberger, M. Haurand and B. Wilffert (1996) Arzneim. -Forsch./Drug Res. 46 (III), 11,1029–1036). The 5HT-uptake inhibition of the following compounds was tested by way of example: […]
Consider `O=S(=O)(Cc1ccc(F)cc1F)N1CCCC1c1nnc(-c2cccnc2)o1` (centres unmarked) [Example 86, 3-{5-[1-(2,4-difluoro-benzylsulfonyl)-pyrrolidin-2-yl]-[1,3,4]oxadiazol-2-yl}-pyridine], for which the “5HT uptake, % inhibition” value amounted to 73%.

As to `COc1ccc(OC)c(CS(=O)(=O)N2CCCC2c2nnc(-c3cccnc3)o2)c1` (centres unmarked) [Example 30, 3-{5-[1-(2,5-dimethoxyl-benzylsulfonyl)-pyrrolidin-2-yl]-[1,3,4]oxadiazol-2-yl}-pyridine], the “5HT uptake, % inhibition” value was 60%.

For `CCOC(=O)CCC(=O)N1CCCC1c1nnc(-c2ccncc2)o1` (centres unmarked) [Example 4, 4-oxo-4-[2-(5-pyridin-4-yl-[1,3,4]oxadiazol-2-yl)-pyrrolidin-1-yl]-butyric acid ethyl ester], the “5HT uptake, % inhibition” value came out at 72%.

In the case of `CN(C)c1cccc(C(=O)N2CCCC2c2nnc(-c3cccnc3)o2)c1` (centres unmarked) [Example 12, (3-dimethyamino-phenyl)-[2-(5-pyridin-3-yl-[1,3,4]oxadiazol-2-yl)-pyrrolidin-1-yl]-methanone], the “5HT uptake, % inhibition” value is on record as 54%.

For `COc1cccc(-c2nnc(C3CCCN3C(=O)c3ccc(Br)cc3)o2)c1` (centres unmarked) [Example 92, (4-bromo-phenyl)-{2-[5-(3-methoxy-phenyl)-[1,3,4]oxadiazol-2-yl]-pyrrolidin-1-yl}-methanone], the “5HT uptake, % inhibition” value came out at 58%.

On to `O=C(C=Cc1ccccc1)N1CCCC1c1nnc(-c2ccccc2)o1` (centres unmarked) [Example 84, 3-phenyl-1-[2-(5-phenyl-[1,3,4]oxadiazol-2-yl)-pyrrolidin-1-yl]-propenone], for which the “5HT uptake, % inhibition” value is on record as 61%.

Consider `O=C(COc1ccc(Cl)cc1)N1CCCC1c1nnc(-c2ccncc2)o1` (centres unmarked) [Example 67, 2-(4-chloro-phenoxy)-1-[2-(5-pyridin-4-yl-[1,3,4]oxadiazol-2-yl)-pyrrolidin-1-yl]-ethanone], for which the “5HT uptake, % inhibition” value was 50%.

Turning to `O=C(c1cc(C(F)(F)F)ccc1C(F)(F)F)N1CCCC1c1nnc(-c2cccs2)o1` (centres unmarked) [Example 165, (2,5-bis-trifluoromethyl-phenyl)-[2-(5-thiophen-2-yl-[1,3,4]oxadiazol-2-yl)-pyrrolidin-1-yl]-methanone], the “5HT uptake, % inhibition” value turned out to be 76%.

As for `O=S(=O)(Cc1ccc(OC(F)(F)F)cc1)N1CCCC1c1nnc(-c2cccnc2)o1` (centres unmarked) [Example 134, 3-{5-[1-(4-trifluoromethoxy-benzylsulfonyl)-pyrrolidin-2-yl]-[1,3,4]oxadiazol-2-yl}-pyridine], the “5HT uptake, % inhibition” value is given as 55%.

As for `COc1cccc(-c2nnc(C3CCCN3C(=O)c3cccc(F)c3F)o2)c1` (centres unmarked) [Example 173, (2,3-difluoro-phenyl)-{2-[5-(3-methoxy-phenyl)-[1,3,4]oxadiazol-2-yl]-pyrrolidin-1-yl}-methanone], the “5HT uptake, % inhibition” value is reported as 62%.

`CCCc1c(C(=O)N2CCCC2c2nnc(-c3cccnc3)o2)cnn1-c1ccccc1` (centres unmarked) [Example 166, (1-phenyl-5-propyl-1H-pyrazol-4-yl)-[2-(5-pyridin-3-yl-[1,3,4]oxadiazol-2-yl)-pyrrolidin-1-yl]-methanone]: the “5HT uptake, % inhibition” value was 78%.

`O=C(c1ccc(SC(F)(F)F)cc1)N1CCCC1c1nnc(-c2ccccc2)o1` (centres unmarked) [Example 181, [2-(5-phenyl-[1,3,4]oxadiazol-2-yl)-pyrrolidin-1-yl]-(4-trifluoromethylsulfanyl-phenyl)-methanone]: the “5HT uptake, % inhibition” value is listed as 62%.

For `Cc1nn(-c2ccccc2)nc1C(=O)N1CCCC1c1nnc(-c2ccncc2)o1` (centres unmarked) [Example 85, (5-methyl-2-phenyl-[1,2.3]triazol-4-yl)-[2-(5-pyridin-4-yl-[1,3,4]oxadiazol-2-yl)-pyrrolidin-1-yl]-methanone], the “5HT uptake, % inhibition” value is listed as 61%.

Take `Cc1nc(C(F)(F)F)ccc1C(=O)N1CCCC1c1nnc(-c2ccccc2)o1` (centres unmarked) [Example 174, (2-methyl-6-trifluoromethyl-pyridin-3-yl)-[2-(5-phenyl-[1,3,4]oxadiazol-2-yl)-pyrrolidin-1-yl]-methanone]: the “5HT uptake, % inhibition” value is 61%.

As for `O=C(N1CCc2ccc(S(=O)(=O)N3CCCC3c3nnc(-c4ccncc4)o3)cc2C1)C(F)(F)F` (centres unmarked) [Example 182, 2,2,2-trifluoro-1-{7-[2-(5-pyridin-4-yl-[1,3,4]oxadiazol-2-yl)-pyrrolidin-1-sulfonyl]-3,4-dihydro-1H-isoquinolin-2-yl}-ethanone], the “5HT uptake, % inhibition” value was 52%.

For `O=C(c1cccnc1Cl)N1CCCC1c1nnc(-c2ccncc2)o1` (centres unmarked) [Example 6, (2-chloro-pyridin-3-yl)-[2-(5-pyridin-4-yl-[1,3,4]oxadiazol-2-yl)pyrrolidin-1-yl]-methanone], the “5HT uptake, % inhibition” value was determined as 84%.

In the case of `CCOc1ccc(C(=O)N2CCCC2c2nnc(-c3ccccc3)o2)cc1` (centres unmarked) [Example 109, (4-ethoxy-phenyl)-[2-(5-phenyl-[1,3,4]oxadiazol-2-yl)-pyrrolidin-1-yl]-methanone], the “5HT uptake, % inhibition” value came to 54%.

Consider `O=C(c1c(F)cccc1F)N1CCCC1c1nnc(-c2ccncc2)o1` (centres unmarked) [Example 101, (2,6-difluoro-phenyl)-[2-(5-pyridin-4-yl-[1,3,4]oxadiazol-2-yl)-pyrrolidin-1-yl]-methanone], for which the “5HT uptake, % inhibition” value turned out to be 54%.

In the case of `O=C(c1cc(C(F)(F)F)ccc1C(F)(F)F)N1CCCC1c1nnc(-c2ccc(Cl)cc2)o1` (centres unmarked) [Example 164, (2,5-bis-trifluoromethyl-phenyl)-{2-[5-(4-chloro-phenyl)-[1,3,4]oxadiazol-2-yl]-pyrrolidin-1-yl}-methanone], the “5HT uptake, % inhibition” value amounted to 80%.

Regarding `COc1ccc(C(=O)N2CCCC2c2nnc(-c3ccncc3)o2)c(OC)c1` (centres unmarked) [Example 5, (2,4-dimethoxy-phenyl)-[2-(5-pyridin-4-yl-[1,3,4]oxadiazol-2-yl)-pyrrolidin-1-yl]methanone], the “5HT uptake, % inhibition” value was found to be 81%.

On to `Cc1cc(C)c(CS(=O)(=O)N2CCCC2c2nnc(-c3ccccc3F)o2)c(C)c1` (centres unmarked) [Example 61, 2-(2-fluoro-phenyl)-5-[1-(2,4,6-trimethyl-benzylsulfonyl)-pyrrolidin-2-yl]-[1,3,4]oxadiazole], for which the “5HT uptake, % inhibition” value was found to be 50%.

For `O=C(c1ccc(Cl)cc1)N1CCCC1c1nnc(-c2ccc(-c3ccccc3)cc2)o1` (centres unmarked) [Example 14, [2-(5-biphenyl-4-yl-[1,3,4]oxadiazol-2-yl)-pyrrolidin-1-yl]-(4-chloro-phenyl)-methanone], the “5HT uptake, % inhibition” value worked out at 69%.

Take `O=S(=O)(c1cc(Cl)c(Cl)s1)N1CCCC1c1nnc(-c2ccncc2)o1` (centres unmarked) [Example 22, 4-{5-[1-(4,5-dichloro-thiophene-2-sulfonyl)-pyrrolidin-2-yl]-[1,3,4]oxadiazol-2-yl}-pyridine]: the “5HT uptake, % inhibition” value is 60%.

As for `Cc1ccc(CS(=O)(=O)NC(Cc2ccccc2)C(=O)N2CCCC2c2nnc(-c3ccncc3)o2)cc1` (centres unmarked) [Example 21, N-{1-benzyl-2-oxo-2-[2-(5-pyridin-4-yl-[1,3,4]oxadiazol-2-yl)-pyrrolidin-1-yl]-ethyl}-4-methyl-benzylsulfonamide], the “5HT uptake, % inhibition” value is reported as 53%.

Turning to `COc1cccc(-c2nnc(C3CCCN3C(=O)c3ccnc(Cl)c3)o2)c1` (centres unmarked) [Example 94, (2-chloro-pyridin-4-yl)-{2-[5-(3-methoxy-phenyl)-[1,3,4]oxadiazol-2-yl]-pyrrolidin-1-yl}-methanone], the “5HT uptake, % inhibition” value is reported as 50%.

On to `COc1ccc(CC(=O)N2CCCC2c2nnc(-c3ccncc3)o2)cc1OC` (centres unmarked) [Example 13, 2-(3,4-dimethoxy-phenyl)-1-[2-(5-pyridin-4-yl-[1,3,4]oxadiazol-2-yl)-pyrrolidin-1-yl]-ethanone], for which the “5HT uptake, % inhibition” value is reported as 67%.

Turning to `CC1(C)C2CCC1(CS(=O)(=O)N1CCCC1c1nnc(-c3ccncc3)o1)C(=O)C2` (centres unmarked) [Example 7, 7,7-dimethyl-1-[2-(5-pyridin-4-yl-[1,3,4]oxadiazol-2-yl)-pyrrolidin-1-sulfonylmethyl]-bicyclo[2.2.1]heptan-2-one], the “5HT uptake, % inhibition” value was 64%.

The next experiment concerns phenylquinone-induced writhing in mice. Nature of the experiment: Analgesic efficacy by phenylquinone-induced writhing in mice. It counts as in vivo. Conditions: male NMRI mice; 10 mg/kg i.v., 10 min before phenylquinone i.p.; writhing counted 5-20 min after phenylquinone. The protocol:
Investigation of Analgesic Efficacy by Testing Writhing in Mice
The investigation into analgesic efficacy was performed by phenylquinone-induced writhing in mice (modified after: I. C. Hendershot and J. Forsaith (1959), J. Pharmacol. Exp. Ther. 125, 237–240). Male NMRI mice weighing from 25 to 30 g were used for this purpose. 10 minutes after intravenous administration of the compounds tested, groups of 10 animals per substance dose received 0.3 ml/mouse of a 0.02% aqueous solution of phenylquinone (phenylbenzoquinone, Sigma, Deisenhofen; solution prepared by adding 5% of ethanol and stored in a water bath at 45° C.) administered intraperitoneally. The animals were placed individually into observation cages. A pushbutton counter was used to record the number of pain-induced stretching movements (writhing reactions=straightening of the torso with stretching of the rear extremities) for 5–20 minutes after phenylquinone administration. The control was provided by animals which received only physiological common salt solution. All substances were tested at the standard dosage of 10 mg/kg. The percentage inhibition (% inhibition) of the writhing reactions by a substance was calculated according to the following formula: […]
On to `O=C(CCC1CCCC1)N1CCCC1c1nnc(-c2cccc(Cl)c2)o1` (centres unmarked) [Example 247, 1-{2-[5-(3-chloro-phenyl)-[1,3,4]oxadiazol-2-yl]-pyrrolidin-1-yl}-3-cyclopentyl-propan-1-one], for which the “% inhibition of writhing reaction by intravenous administration of 10 mg/kg” value is reported as 33%.

As for `CCCCC(=O)N1CCCC1c1nnc(-c2cccc(Cl)c2)o1` (centres unmarked) [Example 248, 1-{2-[5-(3-chloro-phenyl)-[1,3,4]oxadiazol-2-yl]-pyrrolidin-1-yl}-pentan-1-one], the “% inhibition of writhing reaction by intravenous administration of 10 mg/kg” value is 45%.
